In patent US3960877A, “N-monosubstituted-2,3-pyridinedicarboxamides, and related compounds” (priority 1974, dated 1976):

Experiments:
Format in all cases: in vivo
[1] = system: volunteer soybeans; assay: Herbicidal activity at 16 pounds per acre, % control
Description: (§1) In using the compound, seeds of the types of plants set forth in Table II were sown in fresh soil. In the preemergence test the soil was sprayed with a solution of the test compound immediately after the seeds were planted, and before any noticeable growth developed. The solution was about a 2 percent by weight solution of the compound in acetone and/or alcohol. The compound was applied at the rate of 16 pounds per acre of soil surface.
(§2) Approximately 3 weeks after spray application, the herbicidal activity of the compound was determined by visual observation of the treated area in comparison with untreated control areas. These observations are reported below in Table II wherein the average activity rating is reported as the percent control of plant growth.

[2] = system: undesirable plants of both the monocotyledonous and the dicotyledonous species; assay: Herbicidal activity, general; conditions: for order of herbicidal activity: in vivo
Description: All of the 3-substituted compounds of the pyrido [3,2-d]pyrimidine-2,4(1H,3H)-dione and lumazine families made from intermediate amides produced by the method of this invention have an unexpectedly high order of herbicidal activity.
as §1, §2
In the postemergence test the soil and developing plants were sprayed approximately 2 weeks after the seeds were sown. The compound was applied at the rate of 8 pounds per acre from about a 2 percent by weight solution of the test compound in acetone and/or alcohol. The postemergence herbicidal activity was measured in the same way as the preemergence activity; i.e. visual observation approximately 11 days after spraying, and expressed as the percent control of plant growth.

[3] = system: Snapbeans; assay: Preemergence herbicidal activity, % control of plant growth; conditions: pre-emergence, 504 h, 16 lb/acre, about 3 weeks
How it was run: (§3)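 Freshly sown soil received a spray of the test compound, about 2% by weight in acetone and/or alcohol, delivering 16 lb per acre of soil surface before seedlings emerged. Herbicidal effect was judged by eye roughly three weeks afterward relative to untreated areas.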

[4] = system: Johnsongrass; assay: as above; conditions: for pest or weed control at 17933.6 g/ha: Sorghum halepense, pre-emergence, 504 h, 16 lb/acre, about 3 weeks
How it was run: as §3

[5] = system: Chickweed; assay: as above; conditions: pre-emergence, 504 h, 16 lb/acre, about 3 weeks
How it was run: as §3

[6] = system: Wild Oats; assay: as above; conditions: for pest or weed control at 17933.6 g/ha: Avena fatua, pre-emergence, 504 h, 16 lb/acre, about 3 weeks
How it was run: as §3

[7] = system: Crabgrass; assay: as above; conditions: for pest or weed control at 17933.6 g/ha: Digitaria sanguinalis, pre-emergence, 504 h, 16 lb/acre, about 3 weeks
How it was run: as §3

[8] = system: Lambsquarters; assay: as above; conditions: for pest or weed control at 17933.6 g/ha: Chenopodium album, pre-emergence, 504 h, 16 lb/acre, about 3 weeks
How it was run: as §3

[9] = system: Cucumber; assay: as above; conditions: for pest or weed control at 17933.6 g/ha: Cucumis sativus, pre-emergence, 504 h, 16 lb/acre, about 3 weeks
How it was run: as §3

[10] = system: Nutgrass; assay: as above; conditions: pre-emergence, 504 h, 16 lb/acre, about 3 weeks
How it was run: as §3

[11] = system: Cheatgrass; assay: as above; conditions: for pest or weed control at 17933.6 g/ha: Bromus tectorum, pre-emergence, 504 h, 16 lb/acre, about 3 weeks
How it was run: as §3

[12] = system: Barnyard Grass; assay: as above; conditions: for pest or weed control at 17933.6 g/ha: Echinochloa crus-galli, pre-emergence, 504 h, barnyard grass, 16 lb/acre, about 3 weeks
How it was run: as §3

[13] = system: Velvetleaf; assay: as above; conditions: Abutilon theophrasti, pre-emergence, 504 h, 16 lb/acre, about 3 weeks
How it was run: as §3

[14] = system: Curled Dock; assay: as above; conditions: for pest or weed control at 17933.6 g/ha: pre-emergence, 504 h, 16 lb/acre, about 3 weeks
How it was run: as §3

[15] = system: Yellow Rocket; assay: as above; conditions: pre-emergence, 504 h, 16 lb/acre, about 3 weeks
How it was run: as §3

[16] = system: Alfalfa; assay: as above; conditions: for pest or weed control at 17933.6 g/ha: Medicago sativa, pre-emergence, 504 h, 16 lb/acre, about 3 weeks
How it was run: as §3

[17] = system: Corn; assay: as above; conditions: for plant injury at 17933.6 g/ha: Zea mays, pre-emergence, 504 h, 16 lb/acre, about 3 weeks
How it was run: as §3

[18] = system: Foxtail; assay: as above; conditions: for pest or weed control at 17933.6 g/ha: Setaria, pre-emergence, 504 h, 16 lb/acre, about 3 weeks
How it was run: as §3

[19] = system: Pigweed; assay: as above; conditions: for pest or weed control at 17933.6 g/ha: Amaranthus retroflexus, pre-emergence, 504 h, 16 lb/acre, about 3 weeks
How it was run: as §3

[20] = system: Snapbeans; assay: Postemergence herbicidal activity, % control of plant growth; conditions: post-emergence, 264 h, 8 lb/acre, about 11 days
How it was run: (§4)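 Application rate was 8 lb/acre, sprayed from a roughly 2 percent by weight solution in acetone and/or alcohol onto soil and plants about two weeks after sowing. Control was rated visually around 11 days later.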

[21] = system: Johnsongrass; assay: as above; conditions: Sorghum halepense, post-emergence, 264 h, 8 lb/acre, about 11 days
How it was run: as §4

[22] = system: Chickweed; assay: as above; conditions: post-emergence, 264 h, 8 lb/acre, about 11 days
How it was run: as §4

[23] = system: Wild Oats; assay: as above; conditions: Avena fatua, post-emergence, 264 h, 8 lb/acre, about 11 days
How it was run: as §4

[24] = system: Crabgrass; assay: as above; conditions: Digitaria sanguinalis, post-emergence, 264 h, 8 lb/acre, about 11 days
How it was run: as §4

[25] = system: Lambsquarters; assay: as above; conditions: Chenopodium album, post-emergence, 264 h, 8 lb/acre, about 11 days
How it was run: as §4

[26] = system: Cucumber; assay: as above; conditions: Cucumis sativus, post-emergence, 264 h, 8 lb/acre, about 11 days
How it was run: as §4

[27] = system: Nutgrass; assay: as above; conditions: post-emergence, 264 h, 8 lb/acre, about 11 days
How it was run: as §4

[28] = system: Cheatgrass; assay: as above; conditions: Bromus tectorum, post-emergence, 264 h, 8 lb/acre, about 11 days
How it was run: as §4

[29] = system: Barnyard Grass; assay: as above; conditions: Echinochloa crus-galli, post-emergence, 264 h, 8 lb/acre, about 11 days
How it was run: as §4

[30] = system: Velvetleaf; assay: as above; conditions: Abutilon theophrasti, post-emergence, 264 h, 8 lb/acre, about 11 days
How it was run: as §4

[31] = system: Curled Dock; assay: as above; conditions: post-emergence, 264 h, 8 lb/acre, about 11 days
How it was run: as §4

[32] = system: Yellow Rocket; assay: as above; conditions: post-emergence, 264 h, 8 lb/acre, about 11 days
How it was run: as §4

[33] = system: Alfalfa; assay: as above; conditions: Medicago sativa, post-emergence, 264 h, 8 lb/acre, about 11 days
How it was run: as §4

[34] = system: Corn; assay: as above; conditions: Zea mays, post-emergence, 264 h, 8 lb/acre, about 11 days
How it was run: as §4

[35] = system: Foxtail; assay: as above; conditions: Setaria, post-emergence, 264 h, 8 lb/acre, about 11 days
How it was run: as §4

[36] = system: Pigweed; assay: as above; conditions: Amaranthus retroflexus, post-emergence, 264 h, 8 lb/acre, about 11 days
How it was run: as §4

SMILES	order of herbicidal activity [2]	pest or weed control at 17933.6 g/ha [3]	pest or weed control at 17933.6 g/ha [5]	pest or weed control at 17933.6 g/ha [10]	pest or weed control at 17933.6 g/ha [13]	pest or weed control at 17933.6 g/ha [15]	pest or weed control at 8966.8 g/ha [20]	pest or weed control at 8966.8 g/ha [21]	pest or weed control at 8966.8 g/ha [22]	pest or weed control at 8966.8 g/ha [23]	pest or weed control at 8966.8 g/ha [24]	pest or weed control at 8966.8 g/ha [25]	pest or weed control at 8966.8 g/ha [26]	pest or weed control at 8966.8 g/ha [27]	pest or weed control at 8966.8 g/ha [28]	pest or weed control at 8966.8 g/ha [29]	pest or weed control at 8966.8 g/ha [30]	pest or weed control at 8966.8 g/ha [31]	pest or weed control at 8966.8 g/ha [32]	pest or weed control at 8966.8 g/ha [33]	further results
CCn1c(=O)[nH]c2ncccc2c1=O [3-ethyl-pyrido[2,3-d]pyrimidine-2,4 (1H,3H)-dione]	comparatively low order	100%	80%	90%	80%	80%															percent control [1]: 100%; herbicidal activity/control ([4]; 16 pounds per acre): no significant control; herbicidal activity/control ([6]; 16 pounds per acre): no significant control; herbicidal activity/control ([7]; 16 pounds per acre): no significant control; herbicidal activity/control ([8]; 16 pounds per acre): no significant control; herbicidal activity/control ([9]; 16 pounds per acre): no significant control; herbicidal activity/control ([11]; 16 pounds per acre): no significant control; herbicidal activity/control ([12]; barnyardgrass, 16 pounds per acre): no significant control; herbicidal activity/control ([14]; 16 pounds per acre): no significant control; herbicidal activity/control ([16]; 16 pounds per acre): no significant control; herbicidal activity/control ([17]; 16 pounds per acre): no significant control; herbicidal activity/control ([18]; 16 pounds per acre): no significant control; herbicidal activity/control ([19]; 16 pounds per acre): no significant control
O=c1[nH]c2cccnc2c(=O)n1C1CCCCC1 [3-cyclohexyl-pyrido[3,2-d] pyrimidine-2,4(1H,3H)-dione]		100%	100%	100%	100%	100%	80%	100%	100%	100%	100%	100%	100%	100%	80%	100%	100%	100%	100%	30%	plant injury at 8966.8 g/ha [34]: 40%; pest or weed control at 8966.8 g/ha [35]: 100%; pest or weed control at 8966.8 g/ha [36]: 100%; effective application rate ([2]; relative to 3-isopropyl-pyrido[3,2-d]pyrimidine-2,4(1H,3H)-dione, preemergence or postemergence): substantially the same application rates, e.g., as similar or salt solutions in water, are effective; pest or weed control at 17933.6 g/ha [4]: 100%; pest or weed control at 17933.6 g/ha [6]: 100%; pest or weed control at 17933.6 g/ha [7]: 100%; pest or weed control at 17933.6 g/ha [8]: 100%; pest or weed control at 17933.6 g/ha [9]: 100%; pest or weed control at 17933.6 g/ha [11]: 100%; pest or weed control at 17933.6 g/ha [12]: 100%; pest or weed control at 17933.6 g/ha [14]: 100%; pest or weed control at 17933.6 g/ha [16]: 100%; plant injury at 17933.6 g/ha [17]: 90%; pest or weed control at 17933.6 g/ha [18]: 100%; pest or weed control at 17933.6 g/ha [19]: 100%
CC(C)n1c(=O)[nH]c2cccnc2c1=O [3-isopropyl-pyrido[3,2-d]pyrimidine-2,4(1H,3H)-dione]	high order of activity	100%	100%	20%	100%	100%	90%	90%	70%	70%	100%	100%	100%	50%	50%	80%	100%	100%	100%	90%	plant injury at 8966.8 g/ha [34]: 30%; pest or weed control at 8966.8 g/ha [35]: 100%; pest or weed control at 8966.8 g/ha [36]: 100%; pest or weed control at 17933.6 g/ha [4]: 100%; pest or weed control at 17933.6 g/ha [6]: 100%; pest or weed control at 17933.6 g/ha [7]: 100%; pest or weed control at 17933.6 g/ha [8]: 90%; pest or weed control at 17933.6 g/ha [9]: 100%; pest or weed control at 17933.6 g/ha [11]: 100%; pest or weed control at 17933.6 g/ha [12]: 100%; pest or weed control at 17933.6 g/ha [14]: 100%; pest or weed control at 17933.6 g/ha [16]: 100%; plant injury at 17933.6 g/ha [17]: 100%; pest or weed control at 17933.6 g/ha [18]: 100%; pest or weed control at 17933.6 g/ha [19]: 100%
